Drawing on patent publication US9328138B2 (priority 2011, dated 2016), this text covers ring closure, isolated yield and ring closure, yield of all isomers for four compounds.

Like-named read-outs stand apart in the source and are kept apart here.

For series [1] the following is noted: amide bond, 18-membered ring.

`COC(=O)[C@@H]1C[C@@H]2CN1C(=O)[C@H](C1Cc3ccccc3C1)NC(=O)O[C@@H]1C[C@H]1CCCC#Cc1c(nc3ccccc3c1OCc1ccccc1)O2` had a ring closure, isolated yield in series [1] (from COC(=O)[C@@H]1C[C@@H](Oc2nc3ccccc3c(OCc3ccccc3)c2C#CCCC[C@@H]2C[C@H]2OC(=O)N[C@H](C(=O)O)C2Cc3ccccc3C2)CN1, HATU/DIEA, DMF, 50.0 mM) of 80%. For the setting “from COC(=O)[C@@H]1C[C@@H](Oc2nc3ccccc3c(OCc3ccccc3)c2C#CCCC[C@@H]2C[C@H]2OC(=O)N[C@H](C(=O)O)C2Cc3ccccc3C2)CN1, amide bond, HATU, DMF, 50.0 mM, 25.0 °C, 2.0 h”, the ring closure, yield of all isomers was 80%.
`COC(=O)[C@@H]1C[C@@H]2CN1C(=O)[C@H](C(C)(C)C)NC(=O)O[C@H]1C[C@@H]1CCCCCc1c(nc3ccncc3c1OC1CCN(C)CC1)O2` returned a ring closure, isolated yield in series [1] (HATU, 2 steps) of 44.7%. Where the note is “from COC(=O)[C@@H]1C[C@@H](Oc2nc3ccncc3c(OC3CCN(C)CC3)c2CCCCC[C@@H]2C[C@H]2OC(=O)N[C@H](C(=O)OC(C)(C)C)C(C)(C)C)CN1C(=O)OC(C)(C)C, amide bond, HATU, DMF, 51.5 mM, 25.0 °C, 1.5 h, 2 steps”, this compound displayed a ring closure, yield of all isomers of 44.7%.
With `COC(=O)[C@@H]1C[C@@H]2CN1C(=O)[C@H](C1(C)CCCCC1)NC(=O)O[C@@H]1C[C@H]1CCCC#Cc1c(nc3ccccc3c1OCc1ccccc1)O2`, the ring closure, isolated yield in series [1] (from COC(=O)[C@@H]1C[C@@H](Oc2nc3ccccc3c(OCc3ccccc3)c2C#CCCC[C@@H]2C[C@H]2OC(=O)N[C@H](C(=O)O)C2(C)CCCCC2)CN1, HATU/DIEA, DMF, 50.0 mM) is 58.8%. Also, the ring closure, yield of all isomers (from COC(=O)[C@@H]1C[C@@H](Oc2nc3ccccc3c(OCc3ccccc3)c2C#CCCC[C@@H]2C[C@H]2OC(=O)N[C@H](C(=O)O)C2(C)CCCCC2)CN1, amide bond, HATU, DMF, 50.0 mM, 25.0 °C, 3.0 h) turned out to be 58.8%.
Under “from C=CCCCCC[C@H](NC(=O)OC(C)(C)C)C(=O)N1C[C@@H](OS(=O)(=O)c2ccc(Br)cc2)C[C@H]1C(=O)N(C(=O)OC(C)(C)C)[C@]1(C(=O)OCC)C[C@H]1C=C, rcm bond, Zhan catalyst 1B, 1,2-dichloroethane, 10.0 mM, 75.0 °C, 2.0 h”, `CCOC(=O)[C@@]12C[C@H]1C=CCCCCC[C@H](NC(=O)OC(C)(C)C)C(=O)N1C[C@@H](OS(=O)(=O)c3ccc(Br)cc3)C[C@H]1C(=O)N2C(=O)OC(C)(C)C` registered a ring closure, yield of all isomers of 84.8%.
